Laboratory results published in patent publication US20030199694A1, “Thermally stable trimetrexates and processes for producing the same” (MedImmune Oncology, Inc., priority 1998, published 2003).

What was measured:
[1] = Thermal stability of TMH relative to anhydrous trimetrexate: storage at 25° C. or 50° C., HPLC assay, impurities and moisture; format: physicochemical
Experimental: Samples of trimetrexate monohydrate and anhydrous trimetrexate were analyzed to compare the thermal stability of anhydrous trimetrexate with the trimetrexate monohydrate of the present invention. Anhydrous trimetrexate was prepared by dehydrating trimetrexate monohydrate. A sample of trimetrexate monohydrate (about 30 g) was placed in a Petri dish and dried in a vacuum dessicator over phosphorus pentoxide. The sample was dried at a pressure of about 100 microns for 6 days. The following procedure was used to assay the purity of trimetrexate monohydrate and anhydrous trimetrexate samples. Samples of the compounds were analyzed by HPLC. The mobile phase is prepared by first dissolving 5 g of sodium dodecyl sulfate (Aldrich 86,201-0 or equivalent) in 1100 mL water and adjusting the pH to 3.0 with glacial acetic acid (about 5 mL). 825 mL of HPLC grade acetonitrile is then added, and the solution mixed thoroughly, while avoiding excessive foaming. The unfiltered solution is then degassed by sonicating for 5 minutes. The solution is degassed immediately before use, and at the beginning of each day. Duplicate standard solutions are prepared with a trimetrexate reference compound at a concentration of 0.2 mg/mL in the mobile phase solution (“STD-1” and “STD-2”). The standard solutions are stored under refrigeration when not in use, and fresh solutions are prepared daily. Sample solutions of anhydrous trimetrexate and trimetrexate monohydrate are also prepared at 0.2 mg/mL in the mobile phase solution. The system is checked before testing the sample solutions by analyzing the reproducibility of trimetrexate peak area measurements for six injections of the standard trimetrexate solution (STD-1), trimetrexate peak symmetry, and agreement between the duplicate standard preparations. The acceptance criteria are as follows: For assay data, the HPLC operating parameters are as follows: [table] For the determination of impurities, the operating parameters are as before, except that the run time is extended to 30 minutes to detect all possible impurities and/or degradation products, and an attenuation of 32 is used. A mobile phase blank is first run, followed by a sample solution. Purity (%w/w)=[(mg found×100%)+mg sample weighed)]×[…] Peak Area (%)=[peak area (imp)÷(Σpeak area (all impurities+TMTX))]×100. Samples of the anhydrous and monohydrate compounds were initially assayed for purity and moisture content. The samples were stored for 4 weeks at either 25° C. or 50° C. HPLC chromatograms were recorded for the samples stored at each temperature after 3 days, 1 week, 2 weeks and 4 weeks of storage, and the samples assayed at each time interval for purity, impurities and water content. […] The peak at about 13 minutes corresponds to the non-degraded compound; this peak is truncated in the Figure in order to expand the y-axis to view the impurities. […] The “amine” entry in Table 9 corresponds to the amine degradation product which is prominent in FIG. 7 as the large peak at about 20 minutes in the anhydrous sample. This degradation product was isolated and identified as 6-aminomethyl-5-methyl-2,4-quinazolinediamine. It is a pale yellow powder, with a molecular formula of C10H13N5 and a formula weight of 203.25 g/mol. The structure of the compound is shown below [drawing 11]

[2] = cited from earlier work
[3] = system: murine cell lines such as L1210, L5178Y, S-180, W-256; conditions: cited from earlier work
[4] = system: human tumor cells lines derived from breast, colon, lung, ovary, renal and melanoma cells; conditions: human tumor cell lines from breast; cited from earlier work
[5] = system: murine tumors such as B16 melanoma, colon 26 and 38, L1210 and p388 leukemia and CD8F mammary tumors; conditions: cited from earlier work
Hygroscopicity = format: physicochemical
[6] = at 37° C.; cited from earlier work
[7] = stored at 25° C., 1 week, monohydrate
[8] = stored at 25° C., 2 weeks, monohydrate
[9] = stored at 25° C., 4 weeks, monohydrate
[10] = stored at 25° C., 3 days, monohydrate
[11] = stored at 50° C., 1 week, monohydrate
[12] = stored at 50° C., 2 weeks, monohydrate
[13] = stored at 50° C., 4 weeks, monohydrate
[14] = stored at 50° C., 3 days, monohydrate

For `COc1cc(NCc2ccc3nc(N)nc(N)c3c2C)cc(OC)c1OC` [Anhydrous, 2,4-diamino-5-methyl-6-[(3,4,5-trimethoxyanilino)methyl] quinazoline], the “% Moisture” value ([1]; Initial) was 0.1%, the Assay ([1]; Initial, before storage, HPLC purity) was 98.5 w/w and the “Total Impurities” value ([1]; Initial, HPLC) was 0.3 % area. The Amine ([1]; Initial, degradation product 6-aminomethyl-5-methyl-2,4-quinazolinediamine, HPLC) was 0.2 % area, the “% Moisture” value ([1]; stored at 25° C., 1 week) was 0.4% and the Amine ([1]; stored at 25° C., 1 week) was 0.3 % area. The Assay ([1]; stored at 25° C., 1 week) was 96.6 w/w, the “Total Impurities” value ([1]; stored at 25° C., 1 week) was 0.4 % area and the “% Moisture” value ([1]; stored at 25° C., 2 weeks) was 0.2%. The Amine ([1]; stored at 25° C., 2 weeks) was 0.4 % area, the Assay ([1]; stored at 25° C., 2 weeks) was 98.4 w/w and the “Total Impurities” value ([1]; stored at 25° C., 2 weeks) was 0.5 % area. For the same molecule, the “% Moisture” value ([1]; stored at 25° C., 4 weeks) was under 0.1%, the Amine ([1]; stored at 25° C., 4 weeks) was 0.8 % area and the Assay ([1]; stored at 25° C., 4 weeks) was 97.6 w/w. For the same molecule, the “Total Impurities” value ([1]; stored at 25° C., 4 weeks) was 1.0 % area, the “% Moisture” value ([1]; stored at 25° C., 3 days) was 0.3% and the Amine ([1]; stored at 25° C., 3 days) was 0.2 % area. The Assay ([1]; stored at 25° C., 3 days) was 100.4 w/w, the “Total Impurities” value ([1]; stored at 25° C., 3 days) was 0.4 % area and the “% Moisture” value ([1]; stored at 50° C., 1 week) was 0.7%. For the same molecule, the Amine ([1]; stored at 50° C., 1 week) was 0.7 % area, the Assay ([1]; stored at 50° C., 1 week) was 95.0 w/w and the “Total Impurities” value ([1]; stored at 50° C., 1 week) was 1.2 % area. For the same molecule, the “% Moisture” value ([1]; stored at 50° C., 2 weeks) was 0.3%, the Amine ([1]; stored at 50° C., 2 weeks) was 1.4 % area and the Assay ([1]; stored at 50° C., 2 weeks) was 95.8 w/w. The “Total Impurities” value ([1]; stored at 50° C., 2 weeks) was 2.1 % area, the “% Moisture” value ([1]; stored at 50° C., 4 weeks) was under 0.1% and the Amine ([1]; stored at 50° C., 4 weeks) was 2.9 % area. For the same molecule, the Assay ([1]; stored at 50° C., 4 weeks) was 92.7 w/w, the “Total Impurities” value ([1]; stored at 50° C., 4 weeks) was 4.5 % area and the “% Moisture” value ([1]; stored at 50° C., 3 days) was 0.4%. The Amine ([1]; stored at 50° C., 3 days) was 0.4 % area, the Assay ([1]; stored at 50° C., 3 days) was 99.5 w/w and the “Total Impurities” value ([1]; stored at 50° C., 3 days) was 0.7 % area. The water solubility [2] was under 0.1 mg/mL, the “antitumor activity in vitro” value [3] was “antitumor activity” and the “antitumor activity in vitro” value [4] was “antitumor activity”. The “therapeutic utility in vivo” value [5] was “therapeutic utility”.

In the case of `COc1cc(NCc2ccc3nc(N)nc(N)c3c2C)cc(OC)c1OC` [Monohydrate, trimetrexate monohydrate], the Assay ([1]; Initial, before storage, HPLC purity, monohydrate) is reported as 99.6 w/w, the “Total Impurities” value ([1]; Initial, HPLC, monohydrate) is reported as 0.2 % area and the Amine ([1]; Initial, degradation product 6-aminomethyl-5-methyl-2,4-quinazolinediamine, HPLC, monohydrate) is reported as 0.1 % area. The “% Moisture” value ([1]; Initial, monohydrate) was 4.9%, the “degradation products in HPLC chromatogram” value ([1]; after 4 weeks at 50° C., FIG. 7) was “no significant degradation products” and the “% Moisture” value [1, 7] was 4.5%. The Amine [1, 7] was 0.1 % area, the Assay [1, 7] was 96.3 w/w and the “Total Impurities” value [1, 7] was 0.1 % area. For the same molecule, the “% Moisture” value [1, 8] was 4.9%, the Amine [1, 8] was 0.1 % area and the Assay [1, 8] was 99.4 w/w. The “Total Impurities” value [1, 8] was 0.1 % area, the “% Moisture” value [1, 9] was 4.3% and the Amine [1, 9] was 0.1 % area. For the same molecule, the Assay [1, 9] was 99.6 w/w, the “Total Impurities” value [1, 9] was 0.3 % area and the “% Moisture” value [1, 10] was 4.7%. For the same molecule, the Amine [1, 10] was 0.1 % area, the Assay [1, 10] was 101.4 w/w and the “Total Impurities” value [1, 10] was 0.2 % area. The “% Moisture” value [1, 11] was 4.6%, the Amine [1, 11] was 0.1 % area and the Assay [1, 11] was 98.6 w/w. The “Total Impurities” value [1, 11] was 0.2 % area, the “% Moisture” value [1, 12] was 4.8% and the Amine [1, 12] was 0.1 % area. The Assay [1, 12] was 98.7 w/w, the “Total Impurities” value [1, 12] was 0.1 % area and the “% Moisture” value [1, 13] was 4.4%. The Amine [1, 13] was 0.2 % area, the Assay [1, 13] was 99.6 w/w and the “Total Impurities” value [1, 13] was 0.3 % area. For the same molecule, the “% Moisture” value [1, 14] was 4.7%, the Amine [1, 14] was 0.1 % area and the Assay [1, 14] was 99.4 w/w. For the same molecule, the “Total Impurities” value [1, 14] was 0.3 % area and the hygroscopicity (Hygroscopicity) was “non-hygroscopic”.

In the case of `COc1cc(NCc2ccc3nc(N)nc(N)c3c2C)cc(OC)c1OC.O=C(O)[C@H]1O[C@H](O)[C@H](O)[C@@H](O)[C@@H]1O` [trimetrexate glucuronate], the water solubility [2] is listed as over 50 mg/mL and the half-life in solution [6] is listed as 51.6 ± 0.8 days.
